Laboratory results published in paper PMC9854539, “QSAR Studies, Molecular Docking, Molecular Dynamics, Synthesis, and Biological Evaluation of Novel Quinolinone-Based Thiosemicarbazones against Mycobacterium tuberculosis” (Antibiotics, 2022).
≈ marks a conversion by molar mass, not a printed value.

Experiments:
Format in all cases: cell-based, Mycobacterium tuberculosis
M. tuberculosis Orphan = assay: Spot culture growth inhibition assay (SPOTi), MIC; settings: Mycobacterium tuberculosis; multiresistant to isoniazid and rifampicin
M. tuberculosis Beijing = assay: Spot culture growth inhibition assay (SPOTi), MIC; settings: multiresistant to isoniazid and rifampicin
[1] = system: M. tuberculosis ATCC 35822; assay: Spot culture growth inhibition assay (SPOTi), MIC; settings: isoniazid resistant
M. tuberculosis LAM 9 = assay: Spot culture growth inhibition assay (SPOTi), MIC; settings: multiresistant to isoniazid and rifampicin
[2] = system: M. tuberculosis ATCC 35838; assay: Spot culture growth inhibition assay (SPOTi), MIC; settings: rifampicin resistant
M. tuberculosis Haarlem = assay: Spot culture growth inhibition assay (SPOTi), MIC; settings: multiresistant to isoniazid and rifampicin
[3] = system: multiresistant M. tuberculosis; settings: summary of Table 9
[4] = Mycobacterium tuberculosis, ATCC35822
[5] = Mycobacterium tuberculosis, LAM9
[6] = Mycobacterium tuberculosis, ATCC35838

SMILES | MIC (M. tuberculosis Orphan) [µM] | MIC (M. tuberculosis Beijing; Mycobacterium tuberculosis) [µM] | MIC [1, 4] [µM] | MIC (M. tuberculosis LAM 9; [5]) [µM] | MIC [2, 6] [µM] | MIC (M. tuberculosis Haarlem; Mycobacterium tuberculosis) [µM] | MIC (M. tuberculosis Beijing) [µM] | MIC [1] [µM] | MIC (M. tuberculosis LAM 9) [µM] | MIC [2] [µM] | MIC (M. tuberculosis Haarlem) [µM] | MIC against the different families of multiresistant M. tuberculosis [3] [µM]
CC(/C=C/c1cc2ccc(Cl)cc2[nH]c1=O)=N\NC(N)=S [Compound 11d, (E)-2-((E)-4-(7-Chloro-2-oxo-1,2-dihydroquinolin-3-yl)but-3-en-2-ylidene)hydrazine-1-carbothioamide] | 6.23 (≈ 2 µg/mL) | 0.33 (≈ 0.106 µg/mL) | 6.23 (≈ 2 µg/mL) | 3.12 (≈ 1 µg/mL) | 3.33 (≈ 1.07 µg/mL) | 1.56 (≈ 0.5 µg/mL) |  |  |  |  |  | 
CC(/C=C/c1cc2cc(Br)ccc2[nH]c1=O)=N\NC(N)=S [Compound 11e, (E)-2-((E)-4-(6-Bromo-2-oxo-1,2-dihydroquinolin-3-yl)but-3-en-2-ylidene)hydrazine-1-carbothioamide] | 27.4 (≈ 10 µg/mL) | 0.27 (≈ 0.0986 µg/mL) | 1.37 (≈ 0.5 µg/mL) | 2.74 (≈ 1 µg/mL) | 2.73 (≈ 0.997 µg/mL) | 27.4 (≈ 10 µg/mL) |  |  |  |  |  | 
CC(/C=C/c1cc2cccc(C)c2[nH]c1=O)=N\NC(N)=S [Compound 11c, (E)-2-((E)-4-(8-Methyl-2-oxo-1,2-dihydroquinolin-3-yl)but-3-en-2-ylidene)hydrazine-1-carbothioamide] | 66.6 (≈ 20 µg/mL) | 0.33 (≈ 0.0991 µg/mL) | 0.33 (≈ 0.0991 µg/mL) | 3.29 (≈ 0.988 µg/mL) | 1.66 (≈ 0.499 µg/mL) | 33.3 (≈ 10 µg/mL) |  |  |  |  |  | 
CC(/C=C/c1cc2cc(C)ccc2[nH]c1=O)=N\NC(N)=S [Compound 11b, (E)-2-((E)-4-(6-Methyl-2-oxo-1,2-dihydroquinolin-3-yl)but-3-en-2-ylidene)hydrazine-1-carbothioamide] | 33.3 (≈ 10 µg/mL) | 1.66 (≈ 0.499 µg/mL) | 3.33 (≈ 1 µg/mL) | 16.6 (≈ 5 µg/mL) | 3.33 (≈ 1 µg/mL) | 3.33 (≈ 1 µg/mL) |  |  |  |  |  | 
CC1COc2c(N3CCN(C)CC3)c(F)cc3c(=O)c(C(=O)O)cn1c23 (stereo not drawn) [Oxafloxacin, reference compound] |  |  |  |  |  |  | 2.76 (≈ 0.997 µg/mL) | 2.76 (≈ 0.997 µg/mL) | 2.76 (≈ 0.997 µg/mL) | 2.76 (≈ 0.997 µg/mL) | 2.76 (≈ 0.997 µg/mL) | 2.76
